# Reference: patent publication US9487508B2, “SGC stimulators” (IRONWOOD PHARMACEUTICALS, INC., priority 2012, dated 2016)
# Biological target: T1, Human soluble guanylate cyclase enzyme (hsGC) (Homo sapiens, UniProt Q02108+Q02153)
# T1 construct: purchased Enzo Inc. ALX-201-177
# T1 sequence (Q02153 1-619): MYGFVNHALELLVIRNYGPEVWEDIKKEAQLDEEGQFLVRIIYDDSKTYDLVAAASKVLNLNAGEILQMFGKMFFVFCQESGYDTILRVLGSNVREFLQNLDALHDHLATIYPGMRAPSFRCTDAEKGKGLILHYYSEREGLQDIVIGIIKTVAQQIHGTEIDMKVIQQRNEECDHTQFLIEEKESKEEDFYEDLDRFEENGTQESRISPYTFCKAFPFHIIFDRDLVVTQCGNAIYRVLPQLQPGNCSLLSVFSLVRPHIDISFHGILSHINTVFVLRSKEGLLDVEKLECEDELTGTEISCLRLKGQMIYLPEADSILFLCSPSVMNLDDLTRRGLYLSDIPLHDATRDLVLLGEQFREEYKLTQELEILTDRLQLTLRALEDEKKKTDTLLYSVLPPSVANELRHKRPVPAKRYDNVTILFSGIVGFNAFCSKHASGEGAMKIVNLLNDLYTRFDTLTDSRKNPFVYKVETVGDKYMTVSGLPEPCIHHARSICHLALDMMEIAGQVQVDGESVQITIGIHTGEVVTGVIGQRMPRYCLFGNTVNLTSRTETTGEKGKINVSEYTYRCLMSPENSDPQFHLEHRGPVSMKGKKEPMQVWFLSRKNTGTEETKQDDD
# T1 sequence (Q02108 1-690): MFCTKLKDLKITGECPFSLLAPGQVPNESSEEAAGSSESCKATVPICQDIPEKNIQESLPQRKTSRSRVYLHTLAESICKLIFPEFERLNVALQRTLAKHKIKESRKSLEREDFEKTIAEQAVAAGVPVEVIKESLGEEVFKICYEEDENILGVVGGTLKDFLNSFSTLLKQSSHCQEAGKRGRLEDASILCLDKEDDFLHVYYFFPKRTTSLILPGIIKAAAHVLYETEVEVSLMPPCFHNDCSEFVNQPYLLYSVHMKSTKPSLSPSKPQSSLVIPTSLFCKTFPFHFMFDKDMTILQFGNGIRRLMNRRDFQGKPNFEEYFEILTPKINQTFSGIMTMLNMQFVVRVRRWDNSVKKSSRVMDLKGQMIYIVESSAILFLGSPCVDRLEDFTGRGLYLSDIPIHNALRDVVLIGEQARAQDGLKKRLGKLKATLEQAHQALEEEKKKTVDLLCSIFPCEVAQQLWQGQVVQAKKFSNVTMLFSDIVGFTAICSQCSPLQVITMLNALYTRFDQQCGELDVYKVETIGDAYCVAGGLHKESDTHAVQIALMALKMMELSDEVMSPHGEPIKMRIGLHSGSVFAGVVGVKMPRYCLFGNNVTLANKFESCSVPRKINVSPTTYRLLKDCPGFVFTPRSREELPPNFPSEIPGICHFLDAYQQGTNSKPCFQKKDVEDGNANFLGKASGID
# Assay: Purified human sGC enzyme synergy assay in the presence of sodium nitroprusside (SNP)
# Format: biochemical
# Details: 30 μM compound, 1 μM SNP; fold change of specific activity vs DMSO control
# Experimental: Human soluble guanylate cyclase enzyme (hsGC) obtained from Enzo Inc. (P/N: ALX-201-177) was used to evaluate the activity of test compounds. The assay reactions contained 0.1 M Tris (pH 8.0), 0.5 mg/mL BSA (pH 8.0), 2 mM DTT, 2 mM MgCl2, 300 μM GTP, 1 mM 3-isobutyl-1-methylxanthine (IBMX) and 5 ng human soluble guanylate cyclase enzyme. Test compounds in DMSO were then added (2 μL, 10 or 30 μM final concentration) and incubated (water, 200 μL, 96-well plate format) at 37° C. for 30 minutes. The controls were carried out using 2 μL DMSO. After the 30 minute incubation, the reaction was stopped with the addition of 200 μL of cold methanol. The plate was then centrifuged at 3,200 rpm for 10 minutes at room temperature. Supernatants (200 μL) were collected and transferred to a new 96 well plate for analysis by HPLC LC/MS/MS.
# An 8 point cGMP (Sigma-Aldrich P/N: G6129) standard curve was prepared in assay buffer ranging from 0.156-20 μM. Samples for the cGMP standard curve were then diluted with an equal volume of methanol resulting in final cGMP concentrations of 0.078-10 μM.
# The cGMP standard curve was generated using GraphPad Prism Software.
# Calculations: Specific Activity was determined by the amount of cGMP formed (nmoles) per mg of sGC per min. Enzyme “fold-change” was calculated by dividing Specific Activity for test compounds by Specific Activity of DMSO controls. […]
smiles,measurement,value
Nc1ccnc(-n2cc(-c3ncco3)c(Cc3ccccc3F)n2)n1 [Compound I-2],Enzyme Activity (increase at 30 μM with SNP),D (D = 10 or <20 fold increase)
